What was measured:
Puccinia recondita = assay: Test Example E: Brown rust on wheat; assay type: in vivo; conditions: for Test E control value class: class of control value
Phytophthora infestans = assay: whole plant or invertebrate; assay type: in vivo; conditions: for Test F control value class: class of control value
Alternaia brassicicola = assay: Test Example C: Alternaria sooty spot on cabbage; assay type: in vivo; conditions: for Test C control value class: class of control value
Source text: Seeds of a test plant (cabbage variety: Shikidori) were planted and cultivated until the cotyledons extended.
<Control Value> Control value=100{1−(n/3)}

Botrytis cinerea = assay: Test Example B: Gray mold on tomato; conditions: for Test B control value class: class of control value
Magnaporthe grisea = assay: whole plant or invertebrate; assay type: in vivo; conditions: for Test A control value class: class of control value
Plasmopara viticola = assay: Test Example G: Downy mildew on vine; conditions: for Test G control value: 7 to 10 days after inoculation; for Test G control value class: Downy mildew on vine (Neomuscat), 2.5 ml/pot, assessed 7 to 10 days after inoculation
[1] = tested on: Blumeria graminis f. sp. hordei; assay: Test Example D: Powdery mildew on barley; conditions: for Test D control value class: class of control value
[2] = tested on: Colletotrichum orbiculare; assay: Test Example H: Anthracnose on cucumber; conditions: for Test H control value: 6 to 10 days after inoculation; for Test H control value class: Anthracnose on cucumber (Sagami Hanjiro), 2.5 ml/pot, assessed 6 to 10 days after inoculation
[3] = 250 ppm drug solution sprayed on test plant
[4] = 250 ppm drug solution sprayed (2.5 ml/pot), grape Neomuscat
[5] = 250 ppm drug solution sprayed (2.5 ml/pot), cucumber Sagami Hanjiro
[6] = Alternaria sooty spot on cabbage
[7] = Brown rust on wheat, control value class
[8] = Late blight on tomato, control value class
[9] = Alternaria sooty spot on cabbage, control value class
[10] = Gray mold on tomato, control value class
[11] = Blast on rice, control value class
[12] = Downy mildew on vine, 250 ppm spray
[13] = Powdery mildew on barley, control value class
[14] = Anthracnose on cucumber, 250 ppm spray

Structure (SMILES): CCCC1=C(c2c(F)cc(F)cc2F)N(CC)C(=S)CC1 [compound 424]
- Test E control value (Puccinia recondita; [3]): L (50% or less control value)
- Test F control value (Phytophthora infestans; [3]): L (50% or less control value)
- Test C control value (Alternaia brassicicola; [3]): L (50% or less control value)
- Test B control value (Botrytis cinerea; [3]): H (more than 50% control value)
- Test A control value (Magnaporthe grisea; [3]): L (50% or less control value)
- Test G control value (Plasmopara viticola; [4]): L (50% or less control value)
- Test D control value [1, 3]: L (50% or less control value)
- Test H control value [2, 5]: L (50% or less control value)

Structure (SMILES): CCn1c(-c2c(F)cccc2F)c(C(C)C)cc(Cl)c1=O [compound 6]
- Test E control value class (Puccinia recondita; Brown rust on wheat): H (more than 50% control value)
- Test F control value class (Phytophthora infestans; Late blight on tomato): L (50% or less control value)
- Test C control value class (Alternaia brassicicola; [6]): H (more than 50% control value)
- Test B control value class (Botrytis cinerea; Gray mold on tomato): H (more than 50% control value)
- Test A control value class (Magnaporthe grisea; Blast on rice): H (more than 50% control value)
- Test G control value class (Plasmopara viticola; 250 ppm spray): L (50% or less control value)
- Test D control value class ([1]; Powdery mildew on barley): H (more than 50% control value)
- Test H control value class ([2]; 250 ppm spray): H (more than 50% control value)

Structure (SMILES): CCn1c(-c2c(F)cccc2F)c(C(C)(O)C(C)C)ccc1=O (centres unmarked) [compound 521]
- Test E control value (Puccinia recondita; [3]): H (more than 50% control value)
- Test F control value (Phytophthora infestans; [3]): L (50% or less control value)
- Test C control value (Alternaia brassicicola; [3]): H (more than 50% control value)
- Test B control value (Botrytis cinerea; [3]): H (more than 50% control value)
- Test A control value (Magnaporthe grisea; [3]): L (50% or less control value)
- Test G control value (Plasmopara viticola; [4]): H (more than 50% control value)
- Test D control value [1, 3]: H (more than 50% control value)
- Test H control value [2, 5]: L (50% or less control value)

Structure (SMILES): CCCc1cc(Cl)c(=O)n(C)c1-c1ccc(OC)cc1C [compound 433]
- Test E control value (Puccinia recondita; [3]): H (more than 50% control value)
- Test F control value (Phytophthora infestans; [3]): L (50% or less control value)
- Test C control value (Alternaia brassicicola; [3]): H (more than 50% control value)
- Test B control value (Botrytis cinerea; [3]): H (more than 50% control value)
- Test A control value (Magnaporthe grisea; [3]): L (50% or less control value)
- Test G control value (Plasmopara viticola; [4]): H (more than 50% control value)
- Test D control value [1, 3]: H (more than 50% control value)
- Test H control value [2, 5]: H (more than 50% control value)

Structure (SMILES): CCC(O)c1cc(Cl)c(=O)n(C)c1-c1c(F)cc(F)cc1F (centres unmarked) [compound 490]
- Test E control value (Puccinia recondita; [3]): H (more than 50% control value)
- Test F control value (Phytophthora infestans; [3]): L (50% or less control value)
- Test C control value (Alternaia brassicicola; [3]): L (50% or less control value)
- Test B control value (Botrytis cinerea; [3]): L (50% or less control value)
- Test A control value (Magnaporthe grisea; [3]): L (50% or less control value)
- Test G control value (Plasmopara viticola; [4]): H (more than 50% control value)
- Test D control value [1, 3]: L (50% or less control value)
- Test H control value [2, 5]: L (50% or less control value)

Structure (SMILES): CCCc1ccc(=O)n(CC)c1-c1c(F)cc(OCC)cc1F [compound 456]
- Test E control value (Puccinia recondita; [3]): H (more than 50% control value)
- Test F control value (Phytophthora infestans; [3]): L (50% or less control value)
- Test C control value (Alternaia brassicicola; [3]): H (more than 50% control value)
- Test B control value (Botrytis cinerea; [3]): H (more than 50% control value)
- Test A control value (Magnaporthe grisea; [3]): H (more than 50% control value)
- Test G control value (Plasmopara viticola; [4]): H (more than 50% control value)
- Test D control value [1, 3]: H (more than 50% control value)
- Test H control value [2, 5]: H (more than 50% control value)

Structure (SMILES): CCc1cc(Cl)c(=O)n(C)c1-c1ccc(O)cc1Cl [compound 330]
- Test E control value (Puccinia recondita; [7]): L (50% or less control value)
- Test F control value (Phytophthora infestans; [8]): L (50% or less control value)
- Test C control value (Alternaia brassicicola; [9]): L (50% or less control value)
- Test B control value (Botrytis cinerea; [10]): H (more than 50% control value)
- Test A control value (Magnaporthe grisea; [11]): L (50% or less control value)
- Test G control value (Plasmopara viticola; [12]): H (more than 50% control value)
- Test D control value [1, 13]: L (50% or less control value)
- Test H control value [2, 14]: L (50% or less control value)

Structure (SMILES): CCc1cc(Cl)c(=O)n(C)c1-c1ccc(F)cc1C [compound 362]
- Test E control value (Puccinia recondita; [7]): H (more than 50% control value)
- Test F control value (Phytophthora infestans; [8]): L (50% or less control value)
- Test C control value (Alternaia brassicicola; [9]): L (50% or less control value)
- Test B control value (Botrytis cinerea; [10]): H (more than 50% control value)
- Test A control value (Magnaporthe grisea; [11]): H (more than 50% control value)
- Test G control value (Plasmopara viticola; [12]): L (50% or less control value)
- Test D control value [1, 13]: H (more than 50% control value)
- Test H control value [2, 14]: L (50% or less control value)

Structure (SMILES): CCn1c(-c2c(F)cc(OC)cc2F)c(CC(C)C)cc(Br)c1=O [compound 43]
- Test E control value class (Puccinia recondita; Brown rust on wheat): H (more than 50% control value)
- Test F control value class (Phytophthora infestans; Late blight on tomato): L (50% or less control value)
- Test C control value class (Alternaia brassicicola; [6]): H (more than 50% control value)
- Test B control value class (Botrytis cinerea; Gray mold on tomato): H (more than 50% control value)
- Test A control value class (Magnaporthe grisea; Blast on rice): H (more than 50% control value)
- Test G control value class (Plasmopara viticola; 250 ppm spray): H (more than 50% control value)
- Test D control value class ([1]; Powdery mildew on barley): H (more than 50% control value)
- Test H control value class ([2]; 250 ppm spray): H (more than 50% control value)

Structure (SMILES): CCn1c(-c2c(F)cc(OC)cc2F)c(C(C)(F)C(C)C)cc(Cl)c1=O (racemic) [compound 167]
- Test E control value class (Puccinia recondita; Brown rust on wheat): H (more than 50% control value)
- Test F control value class (Phytophthora infestans; Late blight on tomato): H (more than 50% control value)
- Test C control value class (Alternaia brassicicola; [6]): H (more than 50% control value)
- Test B control value class (Botrytis cinerea; Gray mold on tomato): H (more than 50% control value)
- Test A control value class (Magnaporthe grisea; Blast on rice): H (more than 50% control value)
- Test G control value class (Plasmopara viticola; 250 ppm spray): H (more than 50% control value)
- Test D control value class ([1]; Powdery mildew on barley): H (more than 50% control value)
- Test H control value class ([2]; 250 ppm spray): H (more than 50% control value)

Structure (SMILES): CCCCc1cc(Br)c(=O)n(CC)c1-c1ccc(F)cc1Cl [compound 207]
- Test E control value (Puccinia recondita; [7]): H (more than 50% control value)
- Test F control value (Phytophthora infestans; [8]): L (50% or less control value)
- Test C control value (Alternaia brassicicola; [9]): H (more than 50% control value)
- Test B control value (Botrytis cinerea; [10]): H (more than 50% control value)
- Test A control value (Magnaporthe grisea; [11]): H (more than 50% control value)
- Test G control value (Plasmopara viticola; [12]): H (more than 50% control value)
- Test D control value [1, 13]: H (more than 50% control value)
- Test H control value [2, 14]: H (more than 50% control value)

Structure (SMILES): CCn1c(-c2c(F)cc(F)cc2F)c(COC(C)C)cc(Cl)c1=O [compound 58]
- Test E control value class (Puccinia recondita; Brown rust on wheat): H (more than 50% control value)
- Test F control value class (Phytophthora infestans; Late blight on tomato): L (50% or less control value)
- Test C control value class (Alternaia brassicicola; [6]): H (more than 50% control value)
- Test B control value class (Botrytis cinerea; Gray mold on tomato): H (more than 50% control value)
- Test A control value class (Magnaporthe grisea; Blast on rice): H (more than 50% control value)
- Test G control value class (Plasmopara viticola; 250 ppm spray): L (50% or less control value)
- Test D control value class ([1]; Powdery mildew on barley): H (more than 50% control value)
- Test H control value class ([2]; 250 ppm spray): H (more than 50% control value)

Structure (SMILES): CCn1c(-c2c(F)cc(F)cc2F)c(C(=O)C2CCCC2)cc(Cl)c1=O [compound 232]
- Test E control value (Puccinia recondita; [7]): H (more than 50% control value)
- Test F control value (Phytophthora infestans; [8]): L (50% or less control value)
- Test C control value (Alternaia brassicicola; [9]): H (more than 50% control value)
- Test B control value (Botrytis cinerea; [10]): H (more than 50% control value)
- Test A control value (Magnaporthe grisea; [11]): H (more than 50% control value)
- Test G control value (Plasmopara viticola; [12]): L (50% or less control value)
- Test D control value [1, 13]: H (more than 50% control value)
- Test H control value [2, 14]: L (50% or less control value)

— patent US11147272B2, “Pyridone compounds and agricultural and horticultural fungicides comprising the same as active ingredients” (MITSUI CHEMICALS AGRO, INC., priority 2017, dated 2021)
